Test results: US20130217122A1, “Expansion of Interferon-Gamma-Producing T-Cells Using Glypican-3 Peptide Library” (The Trustees of the University of Pennsylvania, priority 2012, published 2013)

B1: Glypican-3 142-151 (FEFVGEFFTD) (peptide)
peptide: FEFVGEFFTD
notes: Synthetic 10 mer of human glypican-3 (NP-004475); also called GPC3 142-151; GPC3142-151
B2: Glypican-3 44-52 (RLQPGLKWV) (peptide)
peptide: RLQPGLKWV
notes: Synthetic 9 mer of human glypican-3 (NP-004475); also called GPC3 44-52; GPC344-52
B3: Glypican-3 563-572 (KLLTSMAISV) (peptide)
peptide: KLLTSMAISV
notes: Synthetic 10 mer of human glypican-3 (NP-004475); also called GPC3 563-572; GPC3563-572
B4: Glypican-3 169-177 (ELFDSLFPV) (peptide)
peptide: ELFDSLFPV
notes: Synthetic 9 mer of human glypican-3 (NP-004475); also called GPC3 169-177; GPC3169-177

Key:
CD8+ T-cells [1] = format: cell-based, human
HLA-A2.1 = HLA-A2.1 (Homo sapiens, UniProt P04439, D140Y/D185E/D98H/E176V/E277Q/G131W/G231S/I119V/I121R/I166T/I218V/L300P/L318F/N151K/N90K/P208A/P217A/Q86G/Q94H/R138H/R169H/T345S); test: T2 binding assay; details: 9-10 mer epitopes
CD8+ T-cells [2] = format: cell-based, human; remark: listed apart in the source
[3] = molecular target: T1, human HLA-A2.1 on T2 cells (human); test: T2 binding assay (HLA-A2 on T2 cells, flow cytometry)
T1 construct: whole, on cells; Empty or peptide-receptive HLA-A2.1 on TAP-deficient T2 cells; also called HLA-A*0201; class I MHC molecules

Molecule | Median pentamer+/CD8+ cells (range) (CD8+ T-cells [1]) | No. with pentamer + cluster (CD8+ T-cells [1]) | No. with pentamer + cluster (%) (CD8+ T-cells [1]) | binding affinity of optimum HLA-A2-binding epitopes (HLA-A2.1) | PD-1 expression in pentamer-positive versus pentamer-negative CD8+ T-cells (CD8+ T-cells [1]) | IFNγ secretion by expanded cells restimulated with cognate antigens (CD8+ T-cells [2]) | expansion of pentamer-specific CD8+ T-cells (CD8+ T-cells [2]) | binding result [3]
LMLGEFLKL [SurlM2, reference compound] | 0.20 (0.20-0.20) % | 1 (11) | 1 (11) % |  |  |  |  | 
FEFVGEFFTD [GPC3 142-151, peptide and HLA-A2.1 pentamer loaded with it] | 0.47 (0.03-0.90) % | 2 (22) | 2 (22) % | strong binding affinity |  |  |  | 
KLLTSMAISV [GPC3 563-572, peptide and HLA-A2.1 pentamer loaded with it] | 0.45 (0.05-1.60) % | 4 (44) | 4 (44) % | strong binding affinity | strong trend |  |  | 
CINGVCWTV [NS3 1073, reference compound] | 0.07 (0.03-0.10) % | 2 (29) | 2 (29) % |  |  |  |  | 
ELFDSLFPV [GPC3 169-178, peptide and HLA-A2.1 pentamer loaded with it] | 1.00 (0.20-1.60) % | 5 (63) | 5 (63) % | strong binding affinity |  |  |  | 
RLQPGLKWV [GPC3 44-52, peptide and HLA-A2.1 pentamer loaded with it] | 0.20 (0.10-0.30) % | 3 (33) | 3 (33) % | strong binding affinity | significantly greater | minimal-to-absent | readily detectable expansion | 
SLTPQAFEFV [GPC3 136-145, peptide and HLA-A2.1 pentamer loaded with it] | 0.70 (0.05-1.30) % | 4 (50) | 4 (50) % | strong binding affinity |  |  |  | 
GILGFTFVL [Flu matrix, reference compound] | 0.40 (0.30-1.30) % | 5 (56) | 5 (56) % |  |  |  |  | 
B1 |  |  |  |  |  |  |  | binds
B2 |  |  |  |  |  |  |  | binds
B3 |  |  |  |  |  |  |  | binds
B4 |  |  |  |  |  |  |  | binds
